The target of this assay is T1, human M4 muscarinic acetylcholine receptor (Homo sapiens, UniProt P08173).
T1 construct: expressed in transfected cells; host or cells: CHO-K1
T1 sequence (P08173 1-479): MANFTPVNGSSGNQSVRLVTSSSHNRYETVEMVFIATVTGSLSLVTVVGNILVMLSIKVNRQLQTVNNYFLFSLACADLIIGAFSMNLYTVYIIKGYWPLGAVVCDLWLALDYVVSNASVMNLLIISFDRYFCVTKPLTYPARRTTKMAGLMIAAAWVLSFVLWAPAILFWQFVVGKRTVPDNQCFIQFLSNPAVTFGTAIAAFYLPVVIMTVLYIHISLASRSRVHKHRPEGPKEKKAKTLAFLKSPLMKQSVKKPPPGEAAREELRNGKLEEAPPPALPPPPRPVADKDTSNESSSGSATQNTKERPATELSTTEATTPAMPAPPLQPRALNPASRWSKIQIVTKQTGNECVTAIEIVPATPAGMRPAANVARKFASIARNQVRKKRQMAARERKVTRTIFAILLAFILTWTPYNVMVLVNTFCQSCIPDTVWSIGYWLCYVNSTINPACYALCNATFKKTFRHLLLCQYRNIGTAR
The assay can be described thus: human FLIPR-based M4 PAM assay (Ca2+ mobilization, CHO-K1 cells with human M4 receptor and Gαqi5). Format: cell-based. The following applies: acetylcholine at 20% of maximum response, read-out: M4 PAM IP. Put shortly:
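Calcium-mobilization (FLIPR) readout in dye-loaded CHO-K1 cells co-expressing human M4 receptor and Gαqi5. Potentiation measured against acetylcholine at a concentration giving 20% of maximal response, with an optional 70% addition; the reported value is the curve inflection point from a 4-parameter logistic fit.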
With `Cc1c(N2CCC(Oc3ccc4c(c3)COC4)CC2)nc2c(c1C)C(=O)N(CCO)C2` [Example 264A, 2-(4-((1,3-Dihydro-2-benzofuran-5-yl)oxy)piperidin-1-yl)-6-(2-hydroxyethyl)-3,4-dimethyl-6,7-dihydro-5H-pyrrolo[3,4-b]pyridin-5-one], the EC50 was found to be 38 nM.
For the molecule `Cc1cc2c(nc1N1CCC(Oc3cnn(C)c3)CC1)[C@H](CO)N(C)C2=O` [Example 358, (R)-7-(hydroxymethyl)-3,6-dimethyl-2-(4-((1-methyl-1H-pyrazol-4-yl)oxy)piperidin-1-yl)-6,7-dihydro-5H-pyrrolo[3,4-b]pyridin-5-one], the EC50 came out at 8070 nM.
On to `Cc1cc2c(nc1N1CCC(Oc3ccccc3)CC1)CN(C(C)C)C2=O` [Example 247, 6-isopropyl-3-methyl-2-(4-phenoxypiperidin-1-yl)-6,7-dihydro-5H-pyrrolo[3,4-b]pyridin-5-one], for which the EC50 came to 137 nM.
Turning to `Cc1cc2c(nc1N1CCC(Oc3cccc(C#N)c3)CC1)C(C)(C)N(C)C2=O` [Example 15, 3-((1-(3,6,7,7-tetramethyl-5-oxo-6,7-dihydro-5H-pyrrolo[3,4-b]pyridin-2-yl)piperidin-4-yl)oxy)benzonitrile], the EC50 is 1990 nM.
The same measure for `Cc1cc2c(nc1N1CCC(Oc3ccc(C#N)nc3)CC1)CNC2=O` [Example 85, 5-((1-(3-methyl-5-oxo-6,7-dihydro-5H-pyrrolo[3,4-b]pyridin-2-yl)piperidin-4-yl)oxy)picolinonitrile]: 2620 nM; for `Cc1c(N2CCC(OC[C@@]3(C)CC3(F)F)CC2)nc2c(c1C)C(=O)N(CCO)C2` [Example 265B, (R)-2-(4-((2,2-difluoro-1-methylcyclopropyl)methoxy)piperidin-1-yl)-6-(2-hydroxyethyl)-3,4-dimethyl-6,7-dihydro-5H-pyrrolo[3,4-b]pyridin-5-one]: 123 nM.
With `Cc1cc2c(nc1N1CCC(OCC3(O)CC3)CC1)CNC2=O` [Example 312B, 2-(4-((1-hydroxycyclopropyl)methoxy)piperidin-1-yl)-3-methyl-6,7-dihydro-5H-pyrrolo[3,4-b]pyridin-5-one], the EC50 was 1120 nM.
On to `Cc1cc2c(nc1N1CC[C@H](Oc3cccc(C#N)c3)[C@@H](O)C1)CNC2=O` [Example 43B, 3-(((3S,4S)-3-hydroxy-1-(3-methyl-5-oxo-6,7-dihydro-5H-pyrrolo[3,4-b]pyridin-2-yl)piperidin-4-yl)oxy)benzonitrile], for which the EC50 came out at 367 nM.
In the case of `Cc1c(N2CCC(Oc3ccc4c(c3)COC4)CC2)nc2c(c1C)C(=O)N([C@@H](C)CO)C2` [Example 266D, (S)-2-(4-((1,3-dihydro-2-benzofuran-5-yl)oxy)piperidin-1-yl)-6-(1-hydroxypropan-2-yl)-3,4-dimethyl-6,7-dihydro-5H-pyrrolo[3,4-b]pyridin-5-one], the EC50 turned out to be 43 nM.
The result for `CCC1(COC2CCN(c3nc4c(cc3C)C(=O)NC4)CC2)CC1` [Example 186, 2-(4-((1-ethylcyclopropyl)meth-oxy)piperidin-1-yl)-3-methyl-6,7-dihydro-5H-pyrrolo[3,4-b]pyridin-5-one] reads 77 nM.
Take `CCc1cc2c(nc1N1CCC(Oc3cccnc3)CC1)CNC2=O` [Example 201, 3-ethyl-2-(4-(pyridin-3-yloxy)piperidin-1-yl)-6,7-dihydro-5H-pyrrolo[3,4-b]pyridin-5-one]: the EC50 came to 230 nM.
As to `Cc1cncc(OC2CCN(c3nc4c(c(C)c3C)C(=O)NC4)CC2)c1` [Example 220A, 3,4-dimethyl-2-(4-((5-methylpyridin-3-yl)oxy)piperidin-1-yl)-6,7-dihydro-5H-pyrrolo[3,4-b]pyridin-5-one], the EC50 amounted to 83 nM.
On to `Cc1c(N2CC[C@@H](Oc3ccc4c(c3)COC4)[C@@H](F)C2)nc2c(c1C)C(=O)NC2` [Example 225, 2-((3S,4R)-4-((1,3-dihydro-2-benzofuran-5-yl)oxy)-3-fluoropiperidin-1-yl)-3,4-dimethyl-6,7-dihydro-5H-pyrrolo[3,4-b]pyridin-5-one], for which the EC50 worked out at 19 nM.
With `Cc1c(N2CC[C@@H](Oc3ccc4c(c3)COCC4)[C@@H](F)C2)nc2c(c1C)C(=O)NC2` [Example 194A, 2-((3S,4R)-3-fluoro-4-(isochroman-7-yloxy)piperidin-1-yl)-3,4-dimethyl-6,7-dihydro-5H-pyrrolo[3,4-b]pyridin-5-one], the EC50 turned out to be 20 nM.
Turning to `Cc1cc2c(nc1N1CCC(Oc3ccccc3)C(F)(F)C1)CNC2=O` (single isomer, unassigned) [Example 158A, cis-2-(3,3-Difluoro-4-phenoxypiperidin-1-yl)-3-methyl-6,7-dihydro-5H-pyrrolo[3,4-b]pyridin-5-one], the EC50 was determined as 452 nM.
With `COC(=O)c1c(C)c(N2CCC(Oc3ccc(OC)nc3)CC2)nc2c1C(=O)NC2` [Example 190, methyl 2-(4-((6-methoxypyridin-3-yl)oxy)piperidin-1-yl)-3-methyl-5-oxo-6,7-dihydro-5H-pyrrolo[3,4-b]pyridine-4-carboxylate], the EC50 came out at 5610 nM.
Consider `COCCN1Cc2nc(N3CCC(Oc4ccc5c(c4)COC5)CC3)c(C)c(C)c2C1=O` [Example 260A, 2-(4-((1,3-dihydro-2-benzofuran-5-yl)oxy)piperidin-1-yl)-6-(2-methoxyethyl)-3,4-dimethyl-6,7-dihydro-5H-pyrrolo[3,4-b]pyridin-5-one], for which the EC50 stood at 43 nM.
Regarding `Cc1cc2c(nc1N1CCC(Oc3ccc(F)cc3)CC1)[C@@H](CO)N(C)C2=O` [Example 279, (S)-2-(4-(4-fluorophenoxy)piperidin-1-yl)-7-(hydroxymethyl)-3,6-dimethyl-6,7-dihydro-5H-pyrrolo[3,4-b]pyridin-5-one], the EC50 is 30 nM.
For the molecule `Cc1cc2c(nc1N1CCC(Oc3ccc4[nH]nnc4c3)CC1)CNC2=O` [Example 163A, 2-(4-((1H-benzo[d][1,2,3]triazol-5-yl)oxy)piperidin-1-yl)-3-methyl-6,7-dihydro-5H-pyrrolo[3,4-b]pyridin-5-one], the EC50 amounted to 1140 nM.
Consider `Cc1cc2c(nc1N1CCC(Oc3ccccc3)CC1)CN(C)C2=O` [Example 240, 3,6-dimethyl-2-(4-phenoxypiperidin-1-yl)-6,7-dihydro-5H-pyrrolo[3,4-b]pyridin-5-one], for which the EC50 worked out at 40 nM.
With `COc1ccc(OC2CCN(c3nc4c(cc3C)C(=O)N(C)C4(CO)CO)CC2)cn1` [Example 274, 7,7-Bis(hydroxymethyl)-2-(4-((6-methoxpyridin-3-yl)oxy)piperidin-1-yl)-3,6-dimethyl-6,7-dihydro-5H-pyrrolo[3,4-b]pyridin-5-one], the EC50 was 1160 nM.
Consider `Cc1cc2c(nc1N1CCC(Oc3ccc(OCC(C)(C)N)nc3)CC1)CNC2=O` [Example 169, 2-(4-((6-(2-amino-2-methylpropoxy)pyridin-3-yl)oxy)piperidin-1-yl)-3-methyl-6,7-dihydro-5H-pyrrolo[3,4-b]pyridin-5-one], for which the EC50 came to 183 nM.
For `Cc1cc2c(nc1N1CCC(Oc3ccc4c(c3)CO[C@H]4C)CC1)CNC2=O` [Example 199B, (S)-3-methyl-2-(4-((1-methyl-1,3-dihydro-2-benzofuran-5-yl)oxy)piperidin-1-yl)-6,7-dihydro-5H-pyrrolo[3,4-b]pyridin-5-one], the EC50 came out at 72 nM.
Turning to `CCc1cc2c(nc1N1CC[C@@H](OCC3(C)CC3)C(F)(F)C1)CNC2=O` (single isomer, unassigned) [Example 374A], the EC50 worked out at 416 nM.
The same measure for `Cc1cc2c(nc1N1CCC(Oc3ccc4c(c3)CC(C)(C)O4)CC1)CNC2=O` [Example 321, 2-(4-((2,2-Dimethyl-2,3-dihydrobenzofuran-5-yl)oxy)piperidin-1-yl)-3-methyl-6,7-dihydro-5H-pyrrolo[3,4-b]pyridin-5-one]: 193 nM; for `Cc1c(N2CCC(OCC3(C)CC3)CC2)nc2c(c1C)C(=O)N(CCO)C2` [Example 267, 6-(2-hydroxyethyl)-3,4-dimethyl-2-(4-((1-methylcyclopropyl)methoxy)piperidin-1-yl)-6,7-dihydro-5H-pyrrolo[3,4-b]pyridin-5-one]: 34 nM.
The result for `Cc1cc2c(nc1N1CCC(Oc3ccc(O[C@@H](C)CO)nc3)CC1)CNC2=O` [Example 143A, (S)-2-(4-((6-((1-hydroxypropan-2-yl)oxy)pyridin-3-yl)oxy)piperidin-1-yl)-3-methyl-6,7-dihydro-5H-pyrrolo[3,4-b]pyridin-5-one] reads 101 nM; that for `CC(=O)NCCOc1ccc(OC2CCN(c3nc4c(cc3C)C(=O)NC4)CC2)cn1` [Example 174, N-(2-((5-((1-(3-methyl-5-oxo-6,7-dihydro-5H-pyrrolo[3,4-b]pyridin-2-yl)piperidin-4-yl)oxy)pyridin-2-yl)oxy)ethyl)acetamide], 45 nM; that for `Cc1cc2c(nc1N1CCC(OCC(O)C(F)(F)F)CC1)CNC2=O` (single isomer, unassigned) [Example 181A], 55 nM.
Take `Cc1cc2c(nc1N1CCC(Oc3ccc4ocnc4c3)CC1)CNC2=O` [Example 80, 2-(4-(benzo[d]oxazol-5-yloxy)piperidin-1-yl)-3-methyl-6,7-dihydro-5H-pyrrolo[3,4-b]pyridin-5-one]: the EC50 was 69 nM.

Values taken from patent publication US10329289B2, “6,7-dihydro-5H-pyrrolo[3,4-B]pyridin-5-one allosteric modulators of the M4 muscarinic acetylcholine receptor” (Merck Sharp & Dohme Corp., priority 2015, dated 2019).
